Test results taken from patent publication US9521846B2, “Template-fixed peptidomimetics with antimicrobial activity” (priority 2006, dated 2016).
Values after ≈ are worked out from the molar mass of the structure shown. Non-standard residues stand in square brackets, D forms with d. Residues, ends and D or L forms follow the SMILES beside them. hSer = N[C@@H](CCO)C(=O)O; Dab = NCC[C@H](N)C(=O)O; Abu = CC[C@H](N)C(=O)O

Legend:
[1] = test system: Pseudomonas aeruginosa IMP 1 Livermore 3140; type: cell-based; conditions: IMP 1 Livermore 3140
Summary of the method: (§1)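 Bacteria were diluted in MH broth containing 0.02% BSA to roughly 10^6 CFU/ml, checked against a 0.5 McFarland standard. This inoculum was then added in equal volume to serially two-fold diluted peptide, following the NCCLS microdilution protocol with slight modifications.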

[2] = test system: Pseudomonas aeruginosa P1021903; type: cell-based; conditions: P1021903
Summary of the method: as §1

[3] = test system: Pseudomonas aeruginosa P8191900; type: cell-based; conditions: P8191900
Summary of the method: as §1

[4] = test system: Pseudomonas aeruginosa P1021913; type: cell-based; conditions: P1021913
Summary of the method: as §1

HELA cells (Acc57) = test: Cytotoxicity assay, MTT reduction (LC 50, GI 50); type: cell-based
Summary of the method: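 HeLa cells seeded at 7.0×10^3 cells/well, grown 24 h, then exposed to peptides at 12.5, 25 and 50 μM in triplicate for 48 h at 37 °C; MTT (0.5 mg/ml, 2 h), A595 read. Percent growth was taken relative to time-zero plates; LC50 and GI50 were interpolated by linear trend at −50% and 50% growth.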

[5] = Plasma stability, human plasma; type: in vitro ADME
[6] = test system: human red blood cells (hRBC); test: Hemolysis; type: cell-based; conditions: 100
P. aeruginosa ATCC 27853 = type: cell-based, Pseudomonas aeruginosa; conditions: ATCC 27853
Summary of the method: as §1

[7] = Plasma stability, rat plasma; type: in vitro ADME

Compound | MIC P. aeruginosa IMP1 Livermore 3140 [1] [mg/L] | MIC P. aeruginosa P1021903 [2] [mg/L] | MIC P. aeruginosa P8191900 [3] [mg/L] | MIC P. aeruginosa P1021913 [4] [mg/L] | Cytotoxicity GI50 Hela cells (HELA cells (Acc57)) [µM] | Stability human Plasma t1/2 [5] [h] | Hemolysis at 100 μg/ml [6] [%] | MIC P. aeruginosa ATCC 27853 (P. aeruginosa ATCC 27853) [mg/L] | Average MIC (P. aeruginosa) [mg/L] | Stability rat Plasma t1/2 [7] [h]
CC[C@H](C)[C@@H]1NC(=O)[C@H](Cc2c[nH]c3ccccc23)NC(=O)[C@H]([C@@H](C)O)NC(=O)[C@@H]2CCCN2C(=O)[C@H]2CCCN2C(=O)[C@H](CCN)NC(=O)CNC(=O)[C@H](CCN)NC(=O)[C@H](CCN)NC(=O)[C@H](Cc2c[nH]c3ccccc23)NC(=O)[C@H](CCN)NC(=O)[C@H](CCN)NC(=O)[C@H](CCCCN)NC(=O)[C@H](CCN)NC1=O [Example 2] (cyclo(TWI[Dab]K[Dab][Dab]W[Dab][Dab]G[Dab][dP]P)) | 0.24 (≈ 0.153 µM) | 0.16 (≈ 0.102 µM) | 0.10 (≈ 0.0638 µM) | 0.18 (≈ 0.115 µM) | 50 | 5 | 0.3 | 0.04 (≈ 0.0255 µM) | 0.15 | 5
CC[C@H](C)[C@@H]1NC(=O)[C@H](Cc2c[nH]c3ccccc23)NC(=O)[C@H]([C@@H](C)O)NC(=O)[C@@H]2CCCN2C(=O)[C@H]2CCCN2C(=O)[C@H](CCN)NC(=O)[C@H](C)NC(=O)[C@H](CCN)NC(=O)[C@H](CCN)NC(=O)[C@H](Cc2c[nH]c3ccccc23)NC(=O)[C@H](CCN)NC(=O)[C@H](CCN)NC(=O)[C@H](CCCCN)NC(=O)[C@H](CCC(N)=O)NC1=O [Example 29] (cyclo(TWIQK[Dab][Dab]W[Dab][Dab]A[Dab][dP]P)) | 0.40 (≈ 0.249 µM) | 0.13 (≈ 0.0808 µM) | 0.13 (≈ 0.0808 µM) | 0.21 (≈ 0.131 µM) | 50 | 5 | 0.5 | 0.09 (≈ 0.0559 µM) | 0.19 | 5
CC[C@H](C)[C@@H]1NC(=O)[C@H](Cc2c[nH]c3ccccc23)NC(=O)[C@H]([C@@H](C)O)NC(=O)[C@@H]2CCCN2C(=O)[C@H]2CCCN2C(=O)[C@H](CCN)NC(=O)[C@H]([C@@H](C)O)NC(=O)[C@H](CCN)NC(=O)[C@H](CCN)NC(=O)[C@H](Cc2c[nH]c3ccccc23)NC(=O)[C@H](CCN)NC(=O)[C@H](CCN)NC(=O)[C@H](CCCCN)NC(=O)[C@H](CCN)NC1=O [Example 16] (cyclo(TWI[Dab]K[Dab][Dab]W[Dab][Dab]T[Dab][dP]P)) | 0.24 (≈ 0.149 µM) | 0.05 (≈ 0.031 µM) | 0.09 (≈ 0.0559 µM) | 0.10 (≈ 0.0621 µM) | 50 | 5 | 0.1 | 0.05 (≈ 0.031 µM) | 0.11 | 5
CC(C)[C@@H]1NC(=O)[C@H](Cc2c[nH]c3ccccc23)NC(=O)[C@H]([C@@H](C)O)NC(=O)[C@@H]2CCCN2C(=O)[C@H]2CCCN2C(=O)[C@H](CCN)NC(=O)[C@H](C)NC(=O)[C@H](CCN)NC(=O)[C@H](CCN)NC(=O)[C@H](Cc2c[nH]c3ccccc23)NC(=O)[C@H](CCN)NC(=O)[C@H](CCN)NC(=O)[C@H](CCCCN)NC(=O)[C@H](CCN)NC1=O [Example 32] (cyclo(TWV[Dab]K[Dab][Dab]W[Dab][Dab]A[Dab][dP]P)) | 0.22 (≈ 0.14 µM) | 0.05 (≈ 0.0319 µM) | 0.05 (≈ 0.0319 µM) | 0.10 (≈ 0.0638 µM) | 50 | 5 | 0 | 0.02 (≈ 0.0128 µM) | 0.09 | 5
CC[C@@H]1NC(=O)[C@H](CCN)NC(=O)[C@H](CCN)NC(=O)[C@H](Cc2c[nH]c3ccccc23)NC(=O)[C@H](CCN)NC(=O)[C@H](CCN)NC(=O)[C@H](CCCCN)NC(=O)[C@H](CCN)NC(=O)[C@H]([C@@H](C)CC)NC(=O)[C@H](Cc2c[nH]c3ccccc23)NC(=O)[C@H]([C@@H](C)O)NC(=O)[C@@H]2CCCN2C(=O)[C@H]2CCCN2C(=O)[C@H](CCN)NC1=O [Example 6] (cyclo(TWI[Dab]K[Dab][Dab]W[Dab][Dab][Abu][Dab][dP]P)) | 0.24 (≈ 0.15 µM) | 0.09 (≈ 0.0564 µM) | 0.10 (≈ 0.0627 µM) | 0.16 (≈ 0.1 µM) | 50 | 5 | 0.2 | 0.05 (≈ 0.0313 µM) | 0.13 | 5
CC[C@H](C)[C@@H]1NC(=O)[C@H](Cc2c[nH]c3ccccc23)NC(=O)[C@H]([C@@H](C)O)NC(=O)[C@@H]2CCCN2C(=O)[C@H]2CCCN2C(=O)[C@H](CCN)NC(=O)[C@H](CCO)NC(=O)[C@H](CCN)NC(=O)[C@H](CCN)NC(=O)[C@H](Cc2c[nH]c3ccccc23)NC(=O)[C@H](CCN)NC(=O)[C@H](CCN)NC(=O)[C@H](CCCCN)NC(=O)[C@H](CCN)NC1=O [Example 35] (cyclo(TWI[Dab]K[Dab][Dab]W[Dab][Dab][hSer][Dab][dP]P)) | 0.31 (≈ 0.192 µM) | 0.10 (≈ 0.0621 µM) | 0.22 (≈ 0.137 µM) | 0.24 (≈ 0.149 µM) | 48 | 5 | 0.2 | 0.05 (≈ 0.031 µM) | 0.18 | 5
CC[C@H](C)[C@@H]1NC(=O)[C@H](Cc2c[nH]c3ccccc23)NC(=O)[C@H]([C@@H](C)O)NC(=O)[C@@H]2CCCN2C(=O)[C@H]2CCCN2C(=O)[C@H](CCN)NC(=O)[C@H](C)NC(=O)[C@H](CCN)NC(=O)[C@H](CCN)NC(=O)[C@H](Cc2c[nH]c3ccccc23)NC(=O)[C@H](CCN)NC(=O)[C@H](CCCCN)NC(=O)[C@H](CCCCN)NC(=O)[C@H](CCN)NC1=O [Example 25] (cyclo(TWI[Dab]KK[Dab]W[Dab][Dab]A[Dab][dP]P)) | 0.24 (≈ 0.149 µM) | 0.05 (≈ 0.0311 µM) | 0.10 (≈ 0.0622 µM) | 0.13 (≈ 0.0808 µM) | 50 | 5 | 0.1 | 0.05 (≈ 0.0311 µM) | 0.11 | 5
CC[C@H](C)[C@@H]1NC(=O)[C@H](Cc2c[nH]c3ccccc23)NC(=O)[C@H]([C@@H](C)O)NC(=O)[C@@H]2CCCN2C(=O)[C@H]2CCCN2C(=O)[C@H](CCCCN)NC(=O)[C@H](C)NC(=O)[C@H](CCN)NC(=O)[C@H](CCN)NC(=O)[C@H](Cc2c[nH]c3ccccc23)NC(=O)[C@H](CCN)NC(=O)[C@H](CCN)NC(=O)[C@H](CCCCN)NC(=O)[C@H](CCN)NC1=O [Example 28] (cyclo(TWI[Dab]K[Dab][Dab]W[Dab][Dab]AK[dP]P)) | 0.24 (≈ 0.149 µM) | 0.07 (≈ 0.0435 µM) | 0.10 (≈ 0.0622 µM) | 0.16 (≈ 0.0994 µM) | 50 | 5 | 0.1 | 0.04 (≈ 0.0249 µM) | 0.12 | 5
